Key:
Settings in all cases: 48 h
P12-Ichikawa [1] = test: cell viability relative to DMSO control; higher = less cytotoxic
How it was run: (§1)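 Viability values are per-plate percentages of DMSO wells, with background from cell-free wells. Library compounds in DMSO were pin-dosed, in an 11-point threefold series from 47 μM to 0.79 nM, onto NOMO1 or SEM (500 cells/well) or P12-Ichikawa (1000 cells/well) leukemia cells in 1536-well plates (5 μl). Those cells had been adapted for at least four passages in each medium, and CellTiter-Glo One luminescence was read after 48 h at 37°C.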

SEM cells [2] = test: as above
How it was run: as §1

NOMO1 [3] = test: as above
How it was run: as §1

P12-Ichikawa [4] = test: AUC of viability dose-response curve (% viability x log10 dose units); higher = less sensitive
How it was run: (§2)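 Viability of medium-adapted leukemia cells was measured by CellTiter-Glo One luminescence after 48 h at 37°C with library compounds in DMSO. Doses were 11 threefold steps from 47 μM to 0.79 nM, in 1536-well plates at 500 or 1000 cells/well. Signals were normalised per plate to DMSO and cell-free wells and fitted with a four-parameter log-logistic model on log10 dose. Area under the curve was integrated by trapezoidal rule, with curves exceeding full viability scaled and failed quality-control curves removed.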

NOMO1 [5] = test: as above
How it was run: as §2

SEM cells [6] = test: as above
How it was run: as §2

COc1cc(N2CCC(O)CC2)ccc1Nc1cc(Nc2ccccc2[S+](=O)([O-])C(C)C)c2cc[nH]c2n1
cell viability [%]
Settings | NOMO1 [3] | P12-Ichikawa [1] | SEM cells [2]
HPLM + 10% dialyzed FBS, 0.000781 µM | 105 | 91.6 | 87.5
HPLM + 10% dialyzed FBS, 0.00234 µM | 131 | 88.2 | 71.5
HPLM + 10% dialyzed FBS, 0.00702 µM | 64.6 | 86 | 79.4
HPLM + 10% dialyzed FBS, 0.0211 µM | 53.7 | 91.3 | 79.2
HPLM + 10% dialyzed FBS, 0.0632 µM | 96.5 | 93 | 81.4
HPLM + 10% dialyzed FBS, 0.19 µM | 96.3 | 85.3 | 58.7
HPLM + 10% dialyzed FBS, 0.569 µM | 89 | 78.4 | 34.3
HPLM + 10% dialyzed FBS, 1.71 µM | 79 | 85.1 | 83.4
HPLM + 10% dialyzed FBS, 5.12 µM | 74.1 | 84.4 | 44
HPLM + 10% dialyzed FBS, 15.4 µM | 62.1 | 84.4 | 17.7
HPLM + 10% dialyzed FBS, 46.1 µM | 65.6 | 80.2 | 22.2
RPMI 5 mM glucose + 10% FBS, 0.000781 µM | 91.7 | 78.4 | –
RPMI 5 mM glucose + 10% FBS, 0.00234 µM | 92.6 | 85.5 | –
RPMI 5 mM glucose + 10% FBS, 0.00702 µM | 84.6 | 85.2 | –
RPMI 5 mM glucose + 10% FBS, 0.0211 µM | 84.9 | 85.4 | –
RPMI 5 mM glucose + 10% FBS, 0.0632 µM | 98.7 | 87.2 | –
RPMI 5 mM glucose + 10% FBS, 0.19 µM | 84.4 | 88 | –
RPMI 5 mM glucose + 10% FBS, 0.569 µM | 92.4 | 81.3 | –
RPMI 5 mM glucose + 10% FBS, 1.71 µM | 86.6 | 81.8 | –
RPMI 5 mM glucose + 10% FBS, 5.12 µM | 87.6 | 80.8 | –
RPMI 5 mM glucose + 10% FBS, 15.4 µM | 74 | 77.4 | –
RPMI 5 mM glucose + 10% FBS, 46.1 µM | 71.9 | 66.9 | –
RPMI 5 mM glucose + 10% dialyzed FBS, 0.000781 µM | 90.4 | 85 | 93.2
RPMI 5 mM glucose + 10% dialyzed FBS, 0.00234 µM | 83.4 | 85.2 | 94.6
RPMI 5 mM glucose + 10% dialyzed FBS, 0.00702 µM | 97.3 | 86.5 | 82.4
RPMI 5 mM glucose + 10% dialyzed FBS, 0.0211 µM | 100 | 83.7 | 96.8
RPMI 5 mM glucose + 10% dialyzed FBS, 0.0632 µM | 101 | 87.1 | 86.3
RPMI 5 mM glucose + 10% dialyzed FBS, 0.19 µM | 87.8 | 80.7 | 60.7
RPMI 5 mM glucose + 10% dialyzed FBS, 0.569 µM | 63.4 | 85 | 27.6
RPMI 5 mM glucose + 10% dialyzed FBS, 1.71 µM | 84.7 | 83.7 | 81.1
RPMI 5 mM glucose + 10% dialyzed FBS, 5.12 µM | 87.5 | 85.6 | 53.9
RPMI 5 mM glucose + 10% dialyzed FBS, 15.4 µM | 67 | 78.4 | 21.1
RPMI 5 mM glucose + 10% dialyzed FBS, 46.1 µM | 67.1 | 77.9 | 18.3

AUC of viability dose-response curve
Settings | HPLM + 10% dialyzed FBS | RPMI 5 mM glucose + 10% FBS | RPMI 5 mM glucose + 10% dialyzed FBS
NOMO1 [5] | 331 | 414 | 404
P12-Ichikawa [4] | 411 | 392 | 400

OCc1ccccc1O[C@@H]1O[C@H](CO)[C@@H](O)[C@H](O)[C@H]1O
Settings | cell viability [%]
NOMO1 [3], RPMI 5 mM glucose + 10% FBS, 0.000781 µM | 120
NOMO1 [3], RPMI 5 mM glucose + 10% FBS, 0.00234 µM | 116
NOMO1 [3], RPMI 5 mM glucose + 10% FBS, 0.00702 µM | 139
NOMO1 [3], RPMI 5 mM glucose + 10% FBS, 0.0211 µM | 128
NOMO1 [3], RPMI 5 mM glucose + 10% FBS, 0.0632 µM | 126
NOMO1 [3], RPMI 5 mM glucose + 10% FBS, 0.19 µM | 139
NOMO1 [3], RPMI 5 mM glucose + 10% FBS, 0.569 µM | 138
NOMO1 [3], RPMI 5 mM glucose + 10% FBS, 1.71 µM | 127
NOMO1 [3], RPMI 5 mM glucose + 10% FBS, 5.12 µM | 129
NOMO1 [3], RPMI 5 mM glucose + 10% FBS, 15.4 µM | 106
NOMO1 [3], RPMI 5 mM glucose + 10% FBS, 46.1 µM | 98.7
SEM cells [2], RPMI 5 mM glucose + 10% dialyzed FBS, 0.000781 µM | 101
SEM cells [2], RPMI 5 mM glucose + 10% dialyzed FBS, 0.00234 µM | 121
SEM cells [2], RPMI 5 mM glucose + 10% dialyzed FBS, 0.00702 µM | 118
SEM cells [2], RPMI 5 mM glucose + 10% dialyzed FBS, 0.0211 µM | 121
SEM cells [2], RPMI 5 mM glucose + 10% dialyzed FBS, 0.0632 µM | 136
SEM cells [2], RPMI 5 mM glucose + 10% dialyzed FBS, 0.19 µM | 148
SEM cells [2], RPMI 5 mM glucose + 10% dialyzed FBS, 0.569 µM | 121
SEM cells [2], RPMI 5 mM glucose + 10% dialyzed FBS, 1.71 µM | 117
SEM cells [2], RPMI 5 mM glucose + 10% dialyzed FBS, 5.12 µM | 97.5
SEM cells [2], RPMI 5 mM glucose + 10% dialyzed FBS, 15.4 µM | 61.8
SEM cells [2], RPMI 5 mM glucose + 10% dialyzed FBS, 46.1 µM | 48.8

AUC of viability dose-response curve
Settings | NOMO1 [5] | P12-Ichikawa [4] | SEM cells [6]
HPLM + 10% dialyzed FBS | 447 | 464 | 430
RPMI 5 mM glucose + 10% FBS | 463 | 448 | 372
RPMI 5 mM glucose + 10% dialyzed FBS | 458 | 459 | 426

O=C(NOC[C@H](O)CO)c1ccc(F)c(F)c1Nc1ccc(I)cc1F
AUC of viability dose-response curve
Settings | NOMO1 [5] | P12-Ichikawa [4] | SEM cells [6]
HPLM + 10% dialyzed FBS | 261 | 434 | 354
RPMI 5 mM glucose + 10% FBS | 274 | 384 | 362
RPMI 5 mM glucose + 10% dialyzed FBS | 260 | 445 | 347

COc1cc2nccc(Oc3ccc(NC(=O)Nc4ccc(F)cc4F)c(F)c3)c2cc1OC
cell viability [%]
Settings | NOMO1 [3] | P12-Ichikawa [1] | SEM cells [2]
HPLM + 10% dialyzed FBS, 0.000781 µM | 101 | 95.4 | 103
HPLM + 10% dialyzed FBS, 0.00234 µM | 95.8 | 93.2 | 86
HPLM + 10% dialyzed FBS, 0.00702 µM | 94.1 | 94.7 | 63.8
HPLM + 10% dialyzed FBS, 0.0211 µM | 84.6 | 100 | 74.4
HPLM + 10% dialyzed FBS, 0.0632 µM | 89.9 | 98.1 | 50.7
HPLM + 10% dialyzed FBS, 0.19 µM | 86 | 89.3 | 32.3
HPLM + 10% dialyzed FBS, 0.569 µM | 90.3 | 91.8 | 41.6
HPLM + 10% dialyzed FBS, 1.71 µM | 83.6 | 94.1 | 42.2
HPLM + 10% dialyzed FBS, 5.12 µM | 75 | 85 | 34.9
HPLM + 10% dialyzed FBS, 15.4 µM | 78.7 | 76.5 | 36.4
HPLM + 10% dialyzed FBS, 46.1 µM | 72.2 | 12.9 | 20
RPMI 5 mM glucose + 10% FBS, 0.000781 µM | 83 | 91.1 | 118
RPMI 5 mM glucose + 10% FBS, 0.00234 µM | 95.8 | 94.8 | 115
RPMI 5 mM glucose + 10% FBS, 0.00702 µM | 79.6 | 88.4 | 87.7
RPMI 5 mM glucose + 10% FBS, 0.0211 µM | 90.5 | 94.8 | 88.9
RPMI 5 mM glucose + 10% FBS, 0.0632 µM | 96.2 | 93.5 | 71.9
RPMI 5 mM glucose + 10% FBS, 0.19 µM | 88.1 | 92.2 | 59
RPMI 5 mM glucose + 10% FBS, 0.569 µM | 87.5 | 83.8 | 55.9
RPMI 5 mM glucose + 10% FBS, 1.71 µM | 90.9 | 86 | 51.6
RPMI 5 mM glucose + 10% FBS, 5.12 µM | 83 | 73.5 | 56.4
RPMI 5 mM glucose + 10% FBS, 15.4 µM | 80.1 | 80.3 | 53.6
RPMI 5 mM glucose + 10% FBS, 46.1 µM | 75.7 | 13.7 | 13.3
RPMI 5 mM glucose + 10% dialyzed FBS, 0.000781 µM | 96.6 | 88 | 72.7
RPMI 5 mM glucose + 10% dialyzed FBS, 0.00234 µM | 96.1 | 98.3 | 89
RPMI 5 mM glucose + 10% dialyzed FBS, 0.00702 µM | 103 | 87.5 | 51.1
RPMI 5 mM glucose + 10% dialyzed FBS, 0.0211 µM | 91.9 | 89.9 | 62.2
RPMI 5 mM glucose + 10% dialyzed FBS, 0.0632 µM | 94.5 | 82.1 | 41.6
RPMI 5 mM glucose + 10% dialyzed FBS, 0.19 µM | 90.1 | 87.4 | 37
RPMI 5 mM glucose + 10% dialyzed FBS, 0.569 µM | 81.7 | 84.5 | 34.1
RPMI 5 mM glucose + 10% dialyzed FBS, 1.71 µM | 102 | 85.3 | 36.4
RPMI 5 mM glucose + 10% dialyzed FBS, 5.12 µM | 80.7 | 75 | 33.4
RPMI 5 mM glucose + 10% dialyzed FBS, 15.4 µM | 83.2 | 81.9 | 33.3
RPMI 5 mM glucose + 10% dialyzed FBS, 46.1 µM | 54.6 | 22.2 | 12.6

AUC of viability dose-response curve
Settings | HPLM + 10% dialyzed FBS | RPMI 5 mM glucose + 10% FBS | RPMI 5 mM glucose + 10% dialyzed FBS
NOMO1 [5] | 413 | 414 | 429
P12-Ichikawa [4] | 419 | 401 | 395

COCCCOc1cc(C[C@@H](C[C@H](N)[C@@H](O)C[C@H](C(=O)NCC(C)(C)C(N)=O)C(C)C)C(C)C)ccc1OC
AUC of viability dose-response curve
Settings | NOMO1 [5] | P12-Ichikawa [4] | SEM cells [6]
HPLM + 10% dialyzed FBS | 457 | 473 | 473
RPMI 5 mM glucose + 10% FBS | 474 | 471 | 461
RPMI 5 mM glucose + 10% dialyzed FBS | 461 | 475 | 458

From the supplement of paper PMC11451515
